pIC50: −log10 of the molar value.
Legend:
Experiment in all cases: Live cell target engagement (NanoBRET) in HEK293 cells
Assay type in all cases: cell-based
[1] = target: AKT2 (Homo sapiens (Human), UniProt P31751); settings: HEK293, 2 hours at 37° C.
[2] = target: AKT1 E17K (Homo sapiens (Human), UniProt P31749, E17K); settings: for pIC50: HEK293, 2 hours at 37° C.
[3] = target: AKT1 WT (Homo sapiens (Human), UniProt P31749); settings: HEK293, 2 hours at 37° C.
AKT1 WT, sequence (P31749 whole entry): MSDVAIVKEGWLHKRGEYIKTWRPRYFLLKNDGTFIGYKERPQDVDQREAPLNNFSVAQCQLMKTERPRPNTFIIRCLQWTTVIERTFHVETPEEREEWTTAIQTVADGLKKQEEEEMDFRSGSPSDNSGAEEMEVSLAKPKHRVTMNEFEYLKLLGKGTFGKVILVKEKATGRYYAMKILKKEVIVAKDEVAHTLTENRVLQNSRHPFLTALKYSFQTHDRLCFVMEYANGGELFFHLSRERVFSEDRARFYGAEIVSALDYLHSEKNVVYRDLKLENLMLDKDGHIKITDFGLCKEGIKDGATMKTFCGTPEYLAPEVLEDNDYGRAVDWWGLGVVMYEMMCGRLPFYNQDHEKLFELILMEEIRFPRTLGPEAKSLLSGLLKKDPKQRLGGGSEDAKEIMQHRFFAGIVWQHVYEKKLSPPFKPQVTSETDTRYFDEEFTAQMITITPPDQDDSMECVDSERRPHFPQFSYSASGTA

AKT2, sequence (P31751 whole entry): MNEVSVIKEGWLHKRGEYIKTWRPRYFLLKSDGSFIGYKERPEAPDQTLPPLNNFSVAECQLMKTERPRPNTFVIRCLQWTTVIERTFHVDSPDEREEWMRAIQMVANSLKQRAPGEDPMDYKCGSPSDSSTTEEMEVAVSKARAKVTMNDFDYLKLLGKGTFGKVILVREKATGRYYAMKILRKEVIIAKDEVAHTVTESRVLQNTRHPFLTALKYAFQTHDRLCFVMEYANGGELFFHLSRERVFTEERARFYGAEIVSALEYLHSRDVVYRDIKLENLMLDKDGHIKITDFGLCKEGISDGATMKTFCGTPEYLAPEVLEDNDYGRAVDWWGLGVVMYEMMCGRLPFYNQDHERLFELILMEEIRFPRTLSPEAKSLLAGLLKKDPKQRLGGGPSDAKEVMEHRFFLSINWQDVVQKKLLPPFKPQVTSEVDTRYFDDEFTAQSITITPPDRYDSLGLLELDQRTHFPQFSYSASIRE
AKT1 E17K, sequence (P31749 whole entry E17K): as the sequence (P31749 whole entry) above, with E17K counted along it

Structure (SMILES) | pIC50 [1] | AKT1 E17K IC50: Selectivity vs AKT1 WT [2] | AKT1 E17K IC50: Selectivity vs AKT2 [2] | pIC50 [2] | pIC50 [3]
Nc1ncccc1-c1nc2ccc(-c3ccccn3)nc2n1-c1ccc(CNC(=O)Cc2ccc(C=O)c(O)c2)cc1 [Compound 62, N-({4-[2-(2-aminopyridin-3-yl)-5-(pyridin-2-yl)imidazo[4,5-b]pyridin-3-yl]phenyl}methyl)-2-(4-formyl-3-hydroxyphenyl)acetamide] | < 6.30 | 2.7 | 47 | > 7.00 | > 7.00
Nc1ncccc1-c1nc2ccc(C(F)F)nc2n1-c1ccc(CNC(=O)Cc2ccc(C=O)c(O)c2)cc1 [Example 7, N-({4-[2-(2-aminopyridin-3-yl)-5-(difluoromethyl)imidazo[4,5-b]pyridin-3-yl]phenyl}methyl)-2-(4-formyl-3-hydroxyphenyl)acetamide] | < 6.30 | 5.8 | 110 | > 7.00 | 6.30 to 7.00
CN(C)C(=O)Nc1cc(CC(=O)NCc2ccc(-n3c(-c4cccnc4N)nc4cccnc43)cc2)ccc1C=O [Compound 43, N-(4-(2-(2-aminopyridin-3-yl)-3H-imidazo[4,5-b]pyridin-3-yl)benzyl)-2-(3-(3,3-dimethylureido)-4-formylphenyl)acetamide] | < 6.30 | 4.5 | >150 | > 7.00 | 6.30 to 7.00
Nc1ncccc1-c1nc2cc(-c3ccccc3)cnc2n1-c1ccc(CNCCc2ccc(C=O)c(O)c2)cc1 [Compound 124, 4-(2-((4-(2-(2-aminopyridin-3-yl)-6-phenyl-3H-imidazo[4,5-b]pyridin-3-yl)benzyl)amino)ethyl)-2-hydroxybenzaldehyde] | < 6.30 | 3.1 | 13 | 6.30 to 7.00 | < 6.30
COc1ccc2nc(-c3cccnc3N)n(-c3ccc(CNC(=O)Cc4ccc(C=O)c(O)c4)cc3)c2n1 [Compound 33, N-(4-(2-(2-aminopyridin-3-yl)-5-methoxy-3H-imidazo[4,5-b]pyridin-3-yl)benzyl)-2-(4-formyl-3-hydroxyphenyl)acetamide] | < 6.30 | 23 | 400 | > 7.00 | 6.30 to 7.00
CC(C)(O)c1ccc2nc(-c3cccnc3N)n(-c3ccc(CNC(=O)Cc4ccc(C=O)c(O)c4)cc3)c2n1 [Example 17, N-({4-[2-(2-aminopyridin-3-yl)-5-(2-hydroxypropan-2-yl)imidazo[4,5-b]pyridin-3-yl]phenyl}methyl)-2-(4-formyl-3-hydroxyphenyl)acetamide] | < 6.30 | 10 | >110 | > 7.00 | < 6.30
Nc1ncccc1-c1nc2ccc(-c3ccccc3)nc2n1-c1ccc(CNc2cc(-c3ccc(C=O)c(O)c3)ccn2)cc1 [Compound 87, 4-(2-((4-(2-(2-aminopyridin-3-yl)-5-phenyl-3H-imidazo[4,5-b]pyridin-3-yl)benzyl)amino)pyridin-4-yl)-2-hydroxybenzaldehyde] | < 6.30 | 0.72 | 1.6 | < 6.30 | < 6.30
CC(C)(O)C#Cc1ccc2nc(-c3cccnc3N)n(-c3ccc(CNC(=O)Cc4ccc(C=O)c(O)c4)cc3)c2n1 [Compound 51, N-(4-(2-(2-aminopyridin-3-yl)-5-(3-hydroxy-3-methylbut-1-yn-1-yl)-3H-imidazo[4,5-b]pyridin-3-yl)benzyl)-2-(4-formyl-3-hydroxyphenyl)acetamide] | < 6.30 | 3.8 | 90 | > 7.00 | 6.30 to 7.00
Nc1ncccc1-c1nc2ccc(-c3ccccc3)nc2n1-c1ccc(C2(NCCc3ccc(C=O)c(O)c3)CCC2)cc1 [Compound 134, 4-(2-((1-(4-(2-(2-aminopyridin-3-yl)-5-phenyl-3H-imidazo[4,5-b]pyridin-3-yl)phenyl)cyclobutyl)amino)ethyl)-2-hydroxybenzaldehyde] | < 6.30 | 2.3 | 4.3 | < 6.30 | < 6.30
Nc1ncccc1-c1nc2ccc(-c3ccc(N4CCOCC4)cc3)nc2n1-c1ccc(CNC(=O)Cc2ccc(C=O)c(O)c2)cc1 [Example 1, N-(4-(2-(2-aminopyridin-3-yl)-5-(4-morpholinophenyl)-3H-imidazo[4,5-b]pyridin-3-yl)benzyl)-2-(4-formyl-3-hydroxyphenyl)acetamide] | < 6.30 | 6.1 | 85 | > 7.00 | > 7.00
Nc1ncccc1-c1nc2cccnc2n1-c1ccc(CNC(=O)C(F)(F)c2ccc(C=O)c(O)c2)cc1 [Compound 78, N-(4-(2-(2-aminopyridin-3-yl)-3H-imidazo[4,5-b]pyridin-3-yl)benzyl)-2,2-difluoro-2-(4-formyl-3-hydroxyphenyl)acetamide] | < 6.30 | 2.2 | 43 | > 7.00 | 6.30 to 7.00
Nc1ncccc1-c1nc2cccnc2n1-c1ccc(CNCCc2ccc(C=O)c(O)c2F)cc1 [Compound 95, 4-(2-((4-(2-(2-aminopyridin-3-yl)-3H-imidazo[4,5-b]pyridin-3-yl)benzyl)amino)ethyl)-3-fluoro-2-hydroxybenzaldehyde] | < 6.30 | 1.8 | 2.5 | < 6.30 | < 6.30

Second part, the compound after the results:

pIC50 [1] | AKT1 E17K IC50: Selectivity vs AKT1 WT [2] | AKT1 E17K IC50: Selectivity vs AKT2 [2] | pIC50 [2] | pIC50 [3] | Structure (SMILES)
< 6.30 | 3.6 | 34 | 6.30 to 7.00 | < 6.30 | Cn1cc(C(=O)Nc2cc(CC(=O)NCc3ccc(-n4c(-c5cccnc5N)nc5cccnc54)cc3)ccc2C=O)cn1 [Compound 44, N-(5-(2-((4-(2-(2-aminopyridin-3-yl)-3H-imidazo[4,5-b]pyridin-3-yl)benzyl)amino)-2-oxoethyl)-2-formylphenyl)-1-methyl-1H-pyrazole-4-carboxamide]
6.30 to 7.00 | 1.2 | 4.9 | > 7.00 | 6.30 to 7.00 | CC(NC(=O)Cc1ccc(O)c(C=O)c1)c1ccc(-n2c(-c3cccnc3N)nc3ccc(-c4ccccc4)nc32)cc1 (stereo not drawn) [Compound 115, N-(1-(4-(2-(2-aminopyridin-3-yl)-5-phenyl-3H-imidazo[4,5-b]pyridin-3-yl)phenyl)ethyl)-2-(3-formyl-4-hydroxyphenyl)acetamide]
6.30 to 7.00 | 5 | 12 | > 7.00 | > 7.00 | CC(NCCc1ccc(O)c(C=O)c1)c1ccc(-n2c(-c3cccnc3N)nc3ccc(-c4ccccc4)nc32)cc1 (stereo not drawn) [Compound 126, 5-(2-((1-(4-(2-(2-aminopyridin-3-yl)-5-phenyl-3H-imidazo[4,5-b]pyridin-3-yl)phenyl)ethyl)amino)ethyl)-2-hydroxybenzaldehyde]
6.30 to 7.00 | 2.2 | 6.7 | > 7.00 | > 7.00 | Nc1ncccc1-c1nc2ccc(-c3ccccc3)nc2n1-c1ccc(CCNCc2ccc(C=O)c(O)c2F)cc1 [Compound 40, 4-(((4-(2-(2-aminopyridin-3-yl)-5-phenyl-3H-imidazo[4,5-b]pyridin-3-yl)phenethyl)amino)methyl)-3-fluoro-2-hydroxybenzaldehyde]
6.30 to 7.00 | 1.2 | 8.3 | > 7.00 | > 7.00 | Nc1ncccc1-c1nc2ccc(-c3ccccc3)nc2n1-c1ccc(CNC(=O)Cc2ccc(C=O)c(O)c2Cl)cc1 [Compound 63, N-({4-[2-(2-aminopyridin-3-yl)-5-phenylimidazo[4,5-b]pyridin-3-yl]phenyl}methyl)-2-(2-chloro-4-formyl-3-hydroxyphenyl)acetamide]
6.30 to 7.00 | 1.8 | 5.9 | > 7.00 | > 7.00 | CS(=O)(=O)Nc1cccc(-c2ccc3nc(-c4cccnc4N)n(-c4ccc(CNCCc5ccc(C=O)c(O)c5)cc4)c3n2)c1 [Compound 101, N-{3-[2-(2-aminopyridin-3-yl)-3-[4-({[2-(4-formyl-3-hydroxyphenyl)ethyl]amino}methyl)phenyl]imidazo[4,5-b]pyridin-5-yl]phenyl}methanesulfonamide]
6.30 to 7.00 | 0.56 | 1.9 | > 7.00 | > 7.00 | COc1cc(CCNCc2ccc(-n3c(-c4cccnc4N)nc4ccc(-c5ccccc5)nc43)cc2)ccc1C=O [Compound 97, 4-{2-[({4-[2-(2-aminopyridin-3-yl)-5-phenylimidazo[4,5-b]pyridin-3-yl]phenyl}methyl)amino]ethyl}-2-methoxybenzaldehyde]
6.30 to 7.00 | 0.26 | 0.75 | 6.30 to 7.00 | 6.30 to 7.00 | C[C@H](NCCc1ccc(O)c(C=O)c1)c1ccc(-n2c(-c3cccnc3N)nc3ccc(-c4ccccc4)nc32)cc1 [Compound 92, 5-(2-{[(1S)-1-{4-[2-(2-aminopyridin-3-yl)-5-phenylimidazo[4,5-b]pyridin-3-yl]phenyl}ethyl]amino}ethyl)-2-hydroxybenzaldehyde]
6.30 to 7.00 | 1.5 | 5.2 | > 7.00 | 6.30 to 7.00 | CN(CCc1ccc(-n2c(-c3cccnc3N)nc3ccc(-c4ccccc4)nc32)cc1)Cc1ccc(C=O)c(O)c1 [Compound 39, 4-{[(2-{4-[2-(2-aminopyridin-3-yl)-5-phenylimidazo[4,5-b]pyridin-3-yl]phenyl}ethyl)(methyl)amino]methyl}-2-hydroxybenzaldehyde]

Reference: patent US20250115600A1, “COVALENT MODIFIERS OF AKT1 AND USES THEREOF” (Terremoto Biosciences, Inc., priority 2022, published 2025)
